Measurements published in patent US20200009020A1, “Caries-Resistant Composite Resin” (Den-Mat Holdings, LLC, priority 2016, published 2020).

Tests used:
[1] = system: e. coli; assay: Antimicrobial activity, modified AATCC TM 100-2012 for solid and composite materials; assay type: cell-based; details: 1.0% Wt. Fract. ZnO in a direct filling composite resin
Experimental: (§1) Zinc oxide has been tested for antimicrobial activity in this invention according to a test that is based upon the International Standard AATCC TM 100-2012. The AATCC TM 100-2012 standard tests for microbial activity on textiles, so the test was modified for use on solid and composite materials.
(§2) As discussed above, microbial activity is measured using a modified AATCC TM 100-2012 standard for use on solid and composite materials.

[2] = system: strep mutans; assay: as above; assay type: cell-based; details: 1.0% Wt. Fract. ZnO in a direct filling composite resin
Experimental: as §1, §2

[3] = system: bacteria; assay: Antimicrobial activity, modified AATCC TM 100-2012 (general statement); assay type: cell-based; details: modified AATCC TM 100-2012 test
Text: as §1

[4] = Translucency of a direct filling composite resin; assay type: physicochemical
Text: When zinc oxide is incorporated into a chemical for use in the oral cavity, it is typically incorporated for its function as an opacifying agent and can be added to a product for this function alone. However, there is a limit to the amount that can be added. Resins are esthetic restorative materials and require high translucency to be esthetic. For this reason, the amount of zinc oxide that may be added is limited to less than 0.8 wt. fract. See Table 5 for the upper limits of zinc oxide that can be incorporated into a direct fill composite resin while maintaining high translucency.
In Table 5, as the wt. fraction of Zinc Oxide is increased, the opacity also increases to a level that is not considered suitable for use as a dental composite resin for esthetic purposes. For esthetic purposes, the dental composite resin must be sufficiently translucent to mimic the appearance of natural dentin. Beyond this level, the opacity becomes too high and the restoration appears as chalky white.

## [O]=[Zn] [Zinc Oxide, zinc oxide]
[1]
  % Reduction of e coli: 100%
[2]
  % reduction of strep mutans: 100%
[3]
  antimicrobial activity: effective in killing bacteria
[4]; Wt. Fract. ZnO 0.8 in a direct filling composite resin
  Translucency: pass
[4]; Wt. Fract. ZnO 1.0 in a direct filling composite resin
  Translucency: fail
